Results: PubChem BioAssay (NCI)
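96-well plates; 48 h exposure; 5 concentrations. Endpoints by linear interpolation between flanking doses. Not reached: highest tested concentration assigned. Abbreviation: GI50, concentration required for 50% inhibition of growth. TGI: concentration producing complete growth inhibition.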

How the values were obtained:
Assay in all cases: growth of human tumour cells (NCI), 48 h
DU-145 prostate = system: DU-145 prostate
HCT-15 colon = system: HCT-15 colon
NCI-H460 lung = system: NCI-H460 lung
SF-539 CNS = system: SF-539 CNS
SK-MEL-2 melanoma = system: SK-MEL-2 melanoma
SN12C renal = system: SN12C renal
SNB-75 CNS = system: SNB-75 CNS
SR leukemia = system: SR leukemia

SMILES | GI50 (DU-145 prostate) [µM] | TGI (DU-145 prostate) [µM] | GI50 (HCT-15 colon) [µM] | TGI (HCT-15 colon) [µM] | GI50 (NCI-H460 lung) [µM] | TGI (NCI-H460 lung) [µM] | GI50 (SF-539 CNS) [µM] | TGI (SF-539 CNS) [µM] | GI50 (SK-MEL-2 melanoma) [µM] | TGI (SK-MEL-2 melanoma) [µM] | GI50 (SN12C renal) [µM] | TGI (SN12C renal) [µM] | GI50 (SNB-75 CNS) [µM] | TGI (SNB-75 CNS) [µM] | GI50 (SR leukemia) [µM] | TGI (SR leukemia) [µM]
COC(=O)c1ccc2c(c1)c1c(C)c3ccncc3c(C)c1n2C | 0.313 | > 100 | 0.215 | 21.2 | 0.296 | 12.6 | 0.332 | 45.1 | 0.75 | 31.6 | 0.214 | > 100 | 0.104 | 15.9 | 0.0575 | 3.39
CCOC(=O)c1csc(NC(=O)COc2cccc(/C=C3\CSc4ccccc4C3=O)c2)n1 | 0.409 | 0.932 | 2.06 | 4.62 | 9.3 | 25 | 0.421 | 1.6 | 0.448 | 0.989 | 1.38 | 6.58 | 0.275 | 4.45 |  | 
COc1ccc(CNc2cnc3cc(N)cc(N)c3n2)cc1 | 19.4 | 49.2 | 24.6 | 68.6 | 33.8 | > 100 | 21.7 | 39.4 | 23.9 | 76.3 | 18.4 | 32.9 | 42.8 | > 100 |  | 
CC(CCCC1SCC2NC(=O)NC21)C(=O)O (centres undefined) |  | > 100 |  | > 100 |  | > 100 |  | > 100 |  | > 100 |  | > 100 |  | > 100 |  | > 100
CCOc1c(C#N)c2c(N)ncnc2n1C1OC(CO)C(O)C1O (centres undefined) | 2.72 | 11.8 | 2.15 | > 100 | 2.48 | > 100 | 4.06 | 50 | 8.61 | 28.3 | 3.14 | > 100 | 5.61 | > 76 | 1.3 | 5.5
CCc1nc2cc(/C=C/C(=O)NO)ccc2c(=O)n1CCc1ccc(F)cc1 | 1.94 | 8.67 | 1.57 | 39.6 | 1.08 | 3.82 | 1.73 | 5.53 | 2.9 | 6.59 |  |  |  |  | 1.74 | > 100
C=C1C(=O)OC2CC3(C)CCCC(C)C3=CC12 (centres undefined) |  | 14.7 |  | 5.08 |  | 13.7 |  | 3.79 |  | 28.5 |  | 12.2 |  | 11.2 |  | 7.04
O=C(Nc1nc(-c2ccc(Cl)cc2)nc2c1sc(=S)n2-c1ccccc1)C(F)(F)F | 4.32 | 25.3 | 6.46 | > 100 | 2.72 | 7.26 | 1.98 | 3.88 | 5.8 | 22.7 | 11.3 | 45.3 | 1.68 | 3.49 | 4.76 | 20.1
